Test results taken from patent EP0233461B2, “4,5,6-Substituted-2-pyrimidinamines” (AMERICAN CYANAMID COMPANY, priority 1986, dated 1987).
Counter-ions that a name gives are not always drawn.

Test system: human basophils
Experiment: Inhibition of histamine release from immunologically stimulated human basophils
Format: cell-based
Conditions: Homo sapiens, concentration causing 50% inhibition of histamine release, by linear regression; active if IC50 ≦ 48 µM
In short: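 Leukocytes from sedimented human blood, washed in Tris-A and resuspended in Tris-ACM, were challenged with anti-IgE or antigen, with or without compound, for 60 min at 37 °C. Released histamine was measured fluorometrically after OPT derivatization and expressed as percent of total (perchloric acid lysate), corrected for spontaneous release.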

Cc1cc(C)cc(Nc2nccc(-c3ccccn3)n2)c1 [N-(3,5-Dimethylphenyl)-4-(2-pyridinyl)-2-pyrimidinamine, sulfate] was tested, and the IC50 was 600 nM.

Same assay, conditions: Homo sapiens, concentration causing 50% inhibition of histamine release, by linear regression; active if IC50 ≦ 48 µM; read-out: IC50

First: Fc1cccc(F)c1Nc1nccc(-c2cccnc2)n1 [N-(2,6-Difluorophenyl)-4-(3-pyridinyl)-2-pyrimidinamine]
Second: Cc1cccc(Nc2nccc(-c3cccnc3)n2)c1 [N-(3-Methylphenyl)-4-(3-pyridinyl)-2-pyrimidinamine]
The IC50 of the first is 15-fold higher: 22000 nM for the first, 1500 nM for the second. The second is the more potent here.

Compared with Brc1ccc(Nc2nccc(-c3cccnc3)n2)cc1 [N-(4-Bromophenyl)-4-(3-pyridinyl)-2-pyrimidinamine], Oc1ccc(Nc2nccc(-c3cccnc3)n2)cc1 [4-[[4-(3-Pyridinyl)-2-pyrimidinyl]amino]phenol] is 2.2-fold higher in IC50: 2300 nM for the first, 5100 nM for the second.

First: Cc1cccc(Nc2nccc(-c3cccn3C)n2)c1 [N-(3-Methylphenyl)-4-(1-methyl-1H-pyrrol-2-yl)-2-pyrimidinamine]
Second: Cc1cccc(Nc2nccc(-c3cccs3)n2)c1 [N-(3-Methylphenyl)-4-(2-thienyl)-2-pyrimidinamine]
The IC50 of the first is 31-fold higher: 9400 nM for the first, 300 nM for the second. The second is the more potent here.

Compared with COc1ccccc1Nc1nccc(-c2cccnc2)n1 [N-(2-Methoxyphenyl)-4-(3-pyridinyl)-2-pyrimidinamine], Oc1ccccc1Nc1nccc(-c2cccnc2)n1 [2-[[4-(3-Pyridinyl)-2-pyrimidinyl]amino]phenol] is 2.4-fold higher in IC50: 9800 nM for the first, 23500 nM for the second. The first is the more potent here.

Going from CCN(CC)c1ccc(Nc2nccc(-c3ccccn3)n2)cc1 [N,N-Diethyl-N'-[4-(2-pyridinyl)-2-pyrimidinyl]-1,4-benzenediamine] to CCc1ccc(Nc2nccc(-c3ccccn3)n2)cc1 [N-(4-Ethylphenyl)-4-(2-pyridinyl)-2-pyrimidinamine], the IC50 falls from 10100 nM to 2100 nM (4.8-fold).

Going from CC(N)c1ccc(Nc2nccc(-c3cccnc3)n2)cc1 (centres unmarked) [N-[4-[1-Aminoethyl)phenyl]-4-(3-pyridinyl)-2-pyrimidinamine, trihydrochloride] to CNc1ccc(Nc2nccc(-c3cccnc3)n2)cc1 [N-Methyl-N'-[4-(3-pyridinyl)-2-pyrimidinyl]-1,4-benzenediamine], the IC50 rises from 800 nM to 2100 nM (2.6-fold). The first is the more potent here.

Compared with Nc1cccc(Nc2nccc(-c3ccncc3)n2)c1 [N-[4-(4-Pyridinyl)-2-pyrimidinyl]-1,3-benzenediamine], Fc1ccc(Nc2nccc(-c3ccncc3)n2)cc1 [N-(4-Fluorophenyl)-4-(4-pyridinyl)-2-pyrimidinamine] is 1.9-fold higher in IC50: 1000 nM for the first, 1900 nM for the second. The first is the more potent here.

CON=C(C)c1ccc(Nc2nccc(-c3cccnc3)n2)cc1 [1-[4-[[4-(3-Pyridinyl)-2-pyrimidinyl]amino]phenyl]ethanone, O-methyloxime] and O=C(O)c1ccc(Nc2nccc(-c3cccnc3)n2)cc1 [4-[[4-(3-Pyridinyl)-2-pyrimidinyl]amino]benzoic acid] are within 1.5-fold of each other in IC50: 5100 nM for the first, 7600 nM for the second.

First: CCc1cccc(Nc2nccc(-c3ccsc3)n2)c1 [N-(3-Ethylphenyl)-4-(3-thienyl)-2-pyrimidinamine]
Second: COc1cccc(Nc2nccc(-c3ccsc3)n2)c1 [N-(3-Methoxyphenyl)-4-(3-thienyl)-2-pyrimidinamine]
The IC50 of the first is 1.5-fold lower: 1100 nM for the first, 1700 nM for the second. The first is the more potent here.

Compared with COc1cccc(Nc2nccc(-c3cccnc3)n2)c1 [N-(3-Methoxyphenyl)-4-(3-pyridinyl)-2-pyrimidinamine], Clc1cccc(Nc2nccc(-c3cccnc3)n2)c1 [N-(3-Chlorophenyl)-4-(3-pyridinyl)-2-pyrimidinamine] is 5-fold higher in IC50: 300 nM for the first, 1500 nM for the second.

Cc1ccc(C)c(Nc2nccc(-c3ccccn3)n2)c1 [N-(2,5-Dimethylphenyl)-4-(2-pyridinyl)-2-pyrimidinamine] and CCOC(=O)c1cccc(Nc2nccc(-c3ccccn3)n2)c1 [3-[[4-(2-Pyridinyl)-2-pyrimidinyl]amino]benzoic acid, ethyl ester] cannot be ordered by IC50: < 48000 nM for the first, 3000 nM for the second.

First: CCN(CC)CCOc1cccc(Nc2nccc(-c3cccs3)n2)c1 [N-[3-[2-(Diethylamino)ethoxy]phen-yl]-4-(2-thienyl)-2-pyrimidinamine]
Second: CCN(CC)CCOc1cccc(Nc2nccc(-c3ccco3)n2)c1 [N-[3-[2-(Diethylamino)ethoxy]phen-yl]-4-(2-furanyl)-2-pyrimidinamine]
The IC50 of the first is 2.2-fold lower: 600 nM for the first, 1300 nM for the second.

Cc1cc(C)cc(Nc2ncc(C)c(-c3ccco3)n2)c1 [N-(3,5-Dimethylphenyl)-4-(2-furanyl)-5-methyl-2-pyrimidinamine] and Cc1cc(C)cc(Nc2nccc(-c3ccncc3)n2)c1 [N-(3,5-Dimethylphenyl)-4-(4-pyridinyl)-2-pyrimidinamine] cannot be ordered by IC50: < 24000 nM for the first, 4400 nM for the second.

Going from c1cc(Nc2nccc(-c3ccco3)n2)cc(-n2ccnc2)c1 [4-(2-Furanyl)-N-[3-(1H-imidazol-1-yl)phenyl]-2-pyrimidinamine] to c1ccc(-c2ccnc(Nc3cccc(-n4ccnc4)c3)n2)nc1 [N-[3-(1H-Imidazol-1-yl)phenyl]-4-(2-pyridinyl)-2-pyrimidinamine], the IC50 falls from 800 nM to 100 nM (8-fold).

Compared with CCc1ccc(Nc2nccc(-c3cc(C)oc3C)n2)cc1 [4-(2,5-Dimethyl-3-furanyl)-N-(4-ethylphenyl)-2-pyrimidinamine], Cc1cccc(Nc2nccc(-c3ccc(C)o3)n2)c1 [4-(5-Methyl-2-furanyl)-N-(3-methylphenyl)-2-pyrimidinamine] is 9.6-fold lower in IC50: 19200 nM for the first, 2000 nM for the second. The second is the more potent here.

Compared with Cc1cc(-c2ccncc2)nc(Nc2ccc(N(C)C)cc2)n1 [N,N-Dimethyl-N'-[4-methyl-6-(4-pyridinyl)-2-pyrimidinyl]-1,4-benzenediamine], CN(C)c1ccc(Nc2nccc(-c3ccsc3)n2)cc1 [N,N-Dimethyl-N'-[4-(3-thienyl)-2-pyrimidinyl]-1,4-benzenediamine] is 18-fold lower in IC50: 37700 nM for the first, 2100 nM for the second.

Going from CC(=O)Nc1ccc(Nc2nccc(-c3ccc(C)s3)n2)cc1 [N-[4-[[4-(5-Methyl-2-thienyl)-2-pyrimidinyl]amino]phenyl]acetamide] to CC(=O)Nc1ccc(Nc2nccc(-c3cccnc3)n2)cc1 [N-[4-[[4-(3-Pyridinyl)-2-pyrimidin-yl]amino]phenyl]acetamide], the IC50 rises from 300 nM to 3600 nM (12-fold).

Compared with Oc1ccc(Nc2nccc(-c3ccncc3)n2)cc1 [4-[[4-(4-Pyridinyl)-2-primidinyl]amino]phenol], Fc1ccc(Nc2nccc(-c3ccco3)n2)cc1 [N-(4-Fluorophenyl)-4-(2-furanyl)-2-pyrimidinamine] is 4-fold higher in IC50: 3300 nM for the first, 13300 nM for the second. The first is the more potent here.

Compared with CCN(CC)c1ccc(Nc2nccc(-c3ccco3)n2)cc1 [N,N-Diethyl-N'-[4-(2-furanyl)-2-pyrimidinyl]-1,4-benzenediamine], CN(C)c1ccc(Nc2nccc(-c3ccco3)n2)cc1 [N'-[4-(2-Furanyl)-2-pyrimidinyl]-N,N-dimethyl-1,4-benzenediamine] is 1.8-fold lower in IC50: 3400 nM for the first, 1900 nM for the second.

Compared with c1ccc(-c2ccnc(NC3CCCC3)n2)nc1 [N-Cyclopentyl-4-(2-pyridinyl)-2-pyrimidinamine], Cc1cc(-c2ccccn2)nc(Nc2ccccc2)n1 [4-Methyl-N-phenyl-6-(2-pyridinyl)-2-pyrimidinamine] is 12-fold higher in IC50: 2200 nM for the first, 26800 nM for the second.

CCc1cccc(Nc2nccc(-c3ccco3)n2)c1 [N-(3-Ethylphenyl)-4-(2-furanyl)-2-pyrimidinamine] and FC(F)(F)c1cccc(Nc2nccc(-c3ccco3)n2)c1 [4-(2-Furanyl)-N-[3-(trifluoromethyl)phenyl]-2-pyrimidinamine] cannot be ordered by IC50: 9700 nM for the first, < 48000 nM for the second.

First: COc1cccc(Nc2nccc(-c3cc4ccccc4o3)n2)c1 [4-(2-Benzofuranyl)-N-(3-methoxyphenyl)-2-pyrimidinamine]
Second: c1ccc(Nc2nccc(-c3ccco3)n2)cc1 [4-(2-Furanyl)-N-phenyl-2-pyrimidinamine]
The IC50 of the first is 40-fold lower: 1200 nM for the first, 48000 nM for the second. The first is the more potent here.

Going from COc1ccc(Nc2nccc(-c3cccs3)n2)cc1 [N-(4-Methoxyphenyl)-4-(2-thienyl)-2-pyrimidinamine] to CN(C)c1cccc(Nc2nccc(-c3cccs3)n2)c1 [N,N-Dimethyl-N'-[4-(2-thienyl)-2-pyrimidinyl]-1,3-benzenediamine], the IC50 falls from 3900 nM to 2400 nM (1.6-fold).

Same assay, conditions: concentration causing 50% inhibition of histamine release, by linear regression; active if IC50 ≦ 48 µM; dinitrate

c1ccc(Nc2nccc(-c3ccncc3)n2)cc1 [N-Phenyl-4-(4-pyridinyl)-2-pyrimidinamine, dinitrate] gave an IC50 of 1200 nM.

Same assay, conditions: concentration causing 50% inhibition of histamine release, by linear regression; active if IC50 ≦ 48 µM; phosphate; read-out: IC50

With c1ccc(Nc2nccc(-c3ccncc3)n2)cc1 [N-Phenyl-4-(4-pyridinyl)-2-pyrimidinamine, phosphate] the IC50 was 3300 nM.

Same assay, conditions: concentration causing 50% inhibition of histamine release, by linear regression; active if IC50 ≦ 48 µM; read-out: IC50

Compared with CN(C)c1cccc(Nc2nccc(-c3ccncc3)n2)c1 [N,N-Dimethyl-N'-[4-(4-pyridinyl)-2-pyrimidinyl)]-1,3-benzene] [N,N-Dimethyl-N'-[4-(4-pyridinyl)-2-pyrimidinyl)]-1,3-benzenediamine, sulfate], CN(C)c1ccc(Nc2nccc(-c3cccnc3)n2)cc1 [N,N-Dimethyl-N'-[4-(3-pyridinyl)-2-pyrimidinyl]-1,4-benzenediamine] is 3.7-fold higher in IC50: 1000 nM for the first, 3700 nM for the second.

Cc1cc(C)cc(Nc2nccc(-c3ccccn3)n2)c1 [N-(3,5-Dimethylphenyl)-4-(2-pyridinyl)-2-pyrimidinamine] was tested, and the IC50 was 1000 nM.

Same assay, conditions: concentration causing 50% inhibition of histamine release, by linear regression; active if IC50 ≦ 48 µM; sulfate

Cc1cccc(Nc2nccc(-c3cccs3)n2)c1 [N-(3-Methylphenyl)-4-(2-thienyl)-2-pyrimidinamine, sulfate] and FC(F)(F)c1cccc(Nc2nccc(-c3ccncc3)n2)c1 [4-(4-Pyridinyl)-N-[3-(trifluoromethyl)phenyl]-2-pyrimidinamine, sulfate] cannot be ordered by IC50: 3000 nM for the first, < 48000 nM for the second.

Same assay, conditions: concentration causing 50% inhibition of histamine release, by linear regression; active if IC50 ≦ 48 µM; trihydrochloride; read-out: IC50

First: CN(C)c1cccc(Nc2nccc(-c3ccccn3)n2)c1 [N,N-Dimethyl-N'-[4-(2-pyridinyl)-2-pyriziiidin-yl]-1,3-benzenediamine, trihydrochloride]
Second: CN(C)c1ccc(Nc2nccc(-c3ccncc3)n2)cc1 [N,N-Dimethyl-N'-[4-(4-pyridinyl)-2-pyrimidinyl]-1,4-benzenediamine, trihydrochloride]
The IC50 of the first is 2.5-fold higher: 1000 nM for the first, 400 nM for the second.
